Here are results for 26 compounds from publication PMC7918878 (Molecules, 2021).

One may read the IC50 as the concentration that gives 50% inhibition. The Ki is a dissociation constant, usually derived from enzyme kinetics or from competition with a known ligand. High values mean weaker binding, low ones tighter binding.

Values joined by “and” are separate entries in the source; they are usually repeats but may differ in a detail not shown here. Identical values can stand only once. Like-named read-outs stand apart in the source and are kept apart here. A value given as a limit tells only on which side of the number the result lay.

Assay [1] deals with BuChE obtained from equine serum (EqBuChE) (Equus caballus, UniProt P81908). The assay is described as follows: biochemical. The class given is biochemical. The note with it: for IC50: mean ± SD, n = three independent experiments, BTCh 40 µM; for fold less active against BuChE than 2d: compared with 2-chlorobenzylidene analogue 2d.
Sequence of BuChE obtained from equine serum (EqBuChE) (P81908 whole entry): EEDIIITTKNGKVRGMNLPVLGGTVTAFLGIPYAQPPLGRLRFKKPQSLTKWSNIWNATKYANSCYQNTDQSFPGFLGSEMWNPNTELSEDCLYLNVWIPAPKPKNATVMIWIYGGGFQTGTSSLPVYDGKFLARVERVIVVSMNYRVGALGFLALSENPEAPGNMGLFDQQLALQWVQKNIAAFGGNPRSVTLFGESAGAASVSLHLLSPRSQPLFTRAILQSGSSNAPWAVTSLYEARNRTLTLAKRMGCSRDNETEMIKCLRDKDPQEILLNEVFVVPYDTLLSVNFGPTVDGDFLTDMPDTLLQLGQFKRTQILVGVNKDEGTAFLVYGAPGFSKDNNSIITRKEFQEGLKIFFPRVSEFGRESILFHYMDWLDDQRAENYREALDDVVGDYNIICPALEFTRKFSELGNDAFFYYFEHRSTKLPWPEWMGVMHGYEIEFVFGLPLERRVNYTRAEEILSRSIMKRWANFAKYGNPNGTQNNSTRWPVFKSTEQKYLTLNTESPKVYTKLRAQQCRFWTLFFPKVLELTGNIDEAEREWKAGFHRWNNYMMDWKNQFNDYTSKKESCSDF
In assay [2] the target is AChE isolated from electric eel (EeAChE) (Electrophorus electricus, UniProt O42275). The assay is described as follows: biochemical. The note with it: for IC50: mean ± SD, n = three independent experiments, ATCh 40 µM; for Selectivity BuChE/AChE: SI = ratio of IC50 for BuChE/IC50 for AChE, >1 means stronger inhibition of AChE.
Sequence of AChE isolated from electric eel (EeAChE) (O42275 24-633): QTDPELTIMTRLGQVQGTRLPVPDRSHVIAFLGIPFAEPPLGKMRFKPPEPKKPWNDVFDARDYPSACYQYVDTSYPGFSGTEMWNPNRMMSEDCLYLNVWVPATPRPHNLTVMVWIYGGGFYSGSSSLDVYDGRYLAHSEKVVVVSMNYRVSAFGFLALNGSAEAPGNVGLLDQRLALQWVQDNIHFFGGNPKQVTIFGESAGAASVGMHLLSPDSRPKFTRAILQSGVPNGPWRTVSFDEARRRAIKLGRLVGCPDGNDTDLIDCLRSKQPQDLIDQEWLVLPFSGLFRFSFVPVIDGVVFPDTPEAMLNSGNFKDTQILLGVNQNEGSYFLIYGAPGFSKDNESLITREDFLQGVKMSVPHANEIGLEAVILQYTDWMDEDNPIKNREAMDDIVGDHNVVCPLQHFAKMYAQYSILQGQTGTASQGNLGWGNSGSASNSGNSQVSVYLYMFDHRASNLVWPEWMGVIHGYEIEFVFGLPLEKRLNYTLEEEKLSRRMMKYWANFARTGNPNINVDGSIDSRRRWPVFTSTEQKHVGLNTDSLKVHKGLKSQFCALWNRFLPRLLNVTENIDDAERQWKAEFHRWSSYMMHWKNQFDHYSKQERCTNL
Another assay relates to HepG2 cells. The note with it: cited from earlier work.
The target of the next assay is eeAChE (Electrophorus electricus, UniProt O42275). The assay is described as follows: Type of inhibition, Lineweaver–Burk plot and nonlinear regression. It counts as biochemical. The method, then:
The type of inhibition could be distinguished using a Lineweaver–Burk plot and corresponding comparison of two kinetic parameters: Michaelis constant (KM) and maximum velocity (Vm) of uninhibited and inhibited reaction. […].
. The dependence absorbance vs. time was observed and the reaction rate was calculated. All measurements were carried out in duplicate and the average values of reaction rate were used for the construction of the Lineweaver–Burk plot. Furthermore, the dependencies vs. concentration of ATCh in absence and presence of inhibitor 2l were analyzed by nonlinear regression using GraphPad Prism 9.0.1 for Windows (GraphPad Software, San Diego, CA, USA, www.graphpad.com). From obtained equations of regression curves in the Lineweaver–Burk plot, the values of Michaelis constant (KM) and maximum velocity (Vm) were calculated. […]. Based on all obtained results, the type of inhibition was identified.

The mark [3] stands for this setting: nonlinear regression, mixed model inhibition.

Sequence of eeAChE (O42275 24-633): as above

Turning to `O=C(N/N=C/c1ccccc1)c1ccc(C(F)(F)F)cc1` [2a], the 50% inhibitory concentration (IC50) in assay [1] (read-out: IC50 BuChE) was 651 ± 31.5 µM; in assay [2] it was 75.9 ± 1.6 µM; with HepG2 cells it was more than 100 µM.

As to `O=C(N/N=C/c1ccc(Cl)cc1)c1ccc(C(F)(F)F)cc1` [2b], the IC50 in assay [1] (read-out: IC50 BuChE) was 254 ± 3.3 µM; in assay [2], 88.5 ± 1.4 µM; in the assay with HepG2 cells it was more than 100 µM. Further, the “Selectivity BuChE/AChE” value in assay [2] came out at 2.9.

For `O=C(N/N=C/c1cccc(Cl)c1)c1ccc(C(F)(F)F)cc1` [2c], the values for the IC50 (in assay [1] (read-out: IC50 BuChE); in assay [2]; in the assay with HepG2 cells) were 261 ± 40.7 µM, 77.1 ± 0.03 µM and more than 100 µM, respectively. Moreover, the “Selectivity BuChE/AChE” value in assay [2] came out at 3.4.

Turning to `O=C(N/N=C/c1ccccc1Cl)c1ccc(C(F)(F)F)cc1` [2d], the concentration for half-maximal inhibition (IC50) in assay [1] (IC50 BuChE) is 63.6 ± 0.9 µM; in assay [2], 128 ± 10 µM; with HepG2 cells it was more than 100 µM. In addition, the “Selectivity BuChE/AChE” value in assay [2] is listed as 0.5.

For the compound `O=C(N/N=C/c1ccc(O)cc1)c1ccc(C(F)(F)F)cc1` [2e], the results for the IC50 (in assay [1] (read-out: IC50 BuChE); in assay [2]; in the assay on HepG2 cells) were 229 ± 14.5 µM, 102 ± 3.8 µM and more than 100 µM, respectively. Further, in assay [2], the “Selectivity BuChE/AChE” value came to 2.3.

For `O=C(N/N=C/c1cccc(O)c1)c1ccc(C(F)(F)F)cc1` [2f], the IC50 is 250 ± 7.5 µM in assay [1] (read-out: IC50 BuChE), 70.4 ± 2.8 µM in assay [2] and more than 100 µM with HepG2 cells. Also, in assay [2], the “Selectivity BuChE/AChE” value is on record as 3.5.

As for `O=C(N/N=C/c1ccccc1O)c1ccc(C(F)(F)F)cc1` [2g], the results for the IC50 (in assay [1] (read-out: IC50 BuChE); in assay [2]; in the assay on HepG2 cells) were 881.1 ± 8 µM, 47.4 ± 1.8 µM and more than 100 µM, respectively. Further, in assay [2], the “Selectivity BuChE/AChE” value is on record as 18.6.

Turning to `O=C(N/N=C/c1cc(Cl)ccc1O)c1ccc(C(F)(F)F)cc1` [2h], the IC50 was 287 ± 12.6 µM in assay [1] (read-out: IC50 BuChE), 138 ± 3 µM in assay [2] and more than 100 µM in the assay with HepG2 cells. Further, in assay [2], the “Selectivity BuChE/AChE” value was 2.1.

Consider `Cc1ccc(/C=N/NC(=O)c2ccc(C(F)(F)F)cc2)cc1` [2i], for which the IC50 in assay [1] (read-out: IC50 BuChE) was 253 ± 9.6 µM; in assay [2], 91.4 ± 6.2 µM; in the assay on HepG2 cells it was more than 100 µM. The “Selectivity BuChE/AChE” value in assay [2] is given as 2.8.

In the case of `COc1ccc(/C=N/NC(=O)c2ccc(C(F)(F)F)cc2)cc1` [2j], the IC50 in assay [1] (read-out: IC50 BuChE) was 279 ± 2.9 µM; in assay [2] it was 109 ± 2.2 µM; with HepG2 cells, more than 100 µM. Besides, the “Selectivity BuChE/AChE” value in assay [2] was 2.6.

For the compound `O=C(N/N=C/c1ccc(Br)cc1)c1ccc(C(F)(F)F)cc1` [2k], the “fold less active against BuChE than 2d” value in assay [1] was “approximately 3 fold”. The figures for the 50% inhibitory concentration (IC50) (in assay [1] (read-out: IC50 BuChE); in assay [2]; in the assay with HepG2 cells) were 342 ± 11.3 µM, 62.1 ± 0.02 µM and more than 100 µM, respectively. The “Selectivity BuChE/AChE” value in assay [2] is recorded as 5.5.

Turning to `O=C(NN=Cc1ccc(C(F)(F)F)cc1)c1ccc(C(F)(F)F)cc1` [2l, 4-(Trifluoromethyl)-N’-[4-(trifluoromethyl)benzylidene]benzohydrazide], on eeAChE (Lineweaver–Burk plot, KM and Vm, ATCh 20–80 µM, inhibitor 10–40 µM), the Type of inhibition entry is on record as “mixed type of inhibition”. On eeAChE (setting [3]), this compound came in with a Ki of 54.6 µM. The compound also had an alpha on eeAChE (setting [3]) of 1.28. The “fold less active against BuChE than 2d” value in assay [1] is recorded as “approximately 3 fold”. For the same compound, the results for the IC50 (in assay [1] (read-out: IC50 BuChE); in assay [2]; in the assay with HepG2 cells) were 175 ± 8.3 µM, 46.8 ± 2.1 µM and more than 100 µM, respectively. For the same compound, the “Selectivity BuChE/AChE” value in assay [2] turned out to be 3.7.

Regarding `O=C(N/N=C/c1ccc([N+](=O)[O-])cc1)c1ccc(C(F)(F)F)cc1` [2m], the IC50 in assay [1] (read-out: IC50 BuChE) is 190.6 ± 1.1 µM; in assay [2], 60 ± 0.4 µM; in the assay with HepG2 cells, more than 100 µM. In assay [2], the “Selectivity BuChE/AChE” value is 3.2.

Regarding `O=C(NN=Cc1cccc(Br)c1)c1ccc(C(F)(F)F)cc1` [2n, N’-(3-Bromobenzylidene)-4-(trifluoromethyl)benzohydrazide], in assay [1] (read-out: IC50 BuChE), the IC50 amounted to 166.3 ± 0.8 µM. Moreover, in assay [2], the “Selectivity BuChE/AChE” value is reported as 1.7 and half-maximal inhibition (IC50) was put at 96.9 ± 1.3 µM.

In the case of `O=C(NN=Cc1ccccc1Br)c1ccc(C(F)(F)F)cc1` [2o, N’-(2-Bromobenzylidene)-4-(trifluoromethyl)benzohydrazide], in assay [1] (fold, 2k vs. 2o), the “improved activity against BuChE” value is 6.3 ×. Further, the concentration for half-maximal inhibition (IC50) in assay [1] (read-out: IC50 BuChE) was found to be 54.2 ± 0.1 µM. Also, in assay [2], the “Selectivity BuChE/AChE” value is 0.9 and inhibition was half-maximal at 62.6 ± 3.2 µM (IC50).

For the compound `O=C(NN=Cc1cccc(C(F)(F)F)c1)c1ccc(C(F)(F)F)cc1` [2p, 4-(Trifluoromethyl)-N’-[3-(trifluoromethyl)benzylidene]benzohydrazide], the IC50 in assay [1] (read-out: IC50 BuChE) is 63.6 ± 2.8 µM. Moreover, in assay [2], the “Selectivity BuChE/AChE” value was 1.3 and half-maximal inhibition (IC50) required 49.9 ± 1.4 µM.

Take `O=C(NN=Cc1ccccc1C(F)(F)F)c1ccc(C(F)(F)F)cc1` [2q, 4-(Trifluoromethyl)-N’-[2-(trifluoromethyl)benzylidene]benzohydrazide]: the IC50 in assay [1] (read-out: IC50 BuChE) is 19.1 ± 0.5 µM. Moreover, in assay [2], the “Selectivity BuChE/AChE” value is 0.4 and half-maximal inhibition (IC50) required 50 ± 1.6 µM.

On to `O=C(NN=Cc1cccc([N+](=O)[O-])c1)c1ccc(C(F)(F)F)cc1` [2r, N’-(3-Nitrobenzylidene)-4-(trifluoromethyl)benzohydrazide], for which the IC50 in assay [1] (read-out: IC50 BuChE) is 133 ± 10.2 µM. For the same compound, in assay [2], the “Selectivity BuChE/AChE” value amounted to 1.6 and half-maximal inhibition (IC50) required 81.3 ± 2.6 µM.

For `O=C(NN=Cc1ccccc1[N+](=O)[O-])c1ccc(C(F)(F)F)cc1` [2s, N’-(2-Nitrobenzylidene)-4-(trifluoromethyl)benzohydrazide], the IC50 in assay [1] (read-out: IC50 BuChE) amounted to 93.1 ± 4.9 µM. In assay [2], the “Selectivity BuChE/AChE” value is on record as 1.6 and the IC50 stood at 59.7 ± 5.8 µM.

In the case of `O=C(NN=Cc1ccc(C(F)(F)F)cc1)c1ccccc1` [2t, N’-[4-(Trifluoromethyl)benzylidene]benzohydrazide], the half-inhibitory concentration (IC50) in assay [1] (read-out: IC50 BuChE) was found to be 189.8 ± 1.7 µM. Also, in assay [2], the “Selectivity BuChE/AChE” value was determined as 3.0 and the concentration for half-maximal inhibition (IC50) was 62.9 ± 0.8 µM.

On to `Cc1ccc(C(=O)NN=Cc2ccc(C(F)(F)F)cc2)cc1` [2u, 4-Methyl-N’-[4-(trifluoromethyl)benzylidene]benzohydrazide], for which the IC50 in assay [1] (read-out: IC50 BuChE) stood at 245 ± 7 µM. Besides, in assay [2], the “Selectivity BuChE/AChE” value stood at 3.3 and half-maximal inhibition (IC50) required 75.3 ± 1.5 µM.

With `CC(C)=NNC(=O)c1ccc(C(F)(F)F)cc1` [3a], the IC50 was 424 µM in assay [1] (read-out: IC50 BuChE), 69.7 ± 5.2 µM in assay [2] and more than 100 µM in the assay on HepG2 cells. In assay [2], the “Selectivity BuChE/AChE” value is on record as 6.1.

Turning to `O=C(NN=C1CCCC1)c1ccc(C(F)(F)F)cc1` [3b], the results for the IC50 (in assay [1] (read-out: IC50 BuChE); in assay [2]; in the assay with HepG2 cells) were 200 ± 13.2 µM, 69.2 ± 1 µM and more than 100 µM, respectively. For the same compound, in assay [2], the “Selectivity BuChE/AChE” value worked out at 2.9.

For `O=C(NN=C1CCCCC1)c1ccc(C(F)(F)F)cc1` [3c], the IC50 in assay [1] (read-out: IC50 BuChE) is 74.7 ± 2.7 µM; in assay [2] it was 61.2 ± 1.3 µM; in the assay on HepG2 cells, more than 100 µM. In assay [2], the “Selectivity BuChE/AChE” value worked out at 1.2.

`CC12CCC(CC1=NNC(=O)c1ccc(C(F)(F)F)cc1)C2(C)C` (centres unmarked) [3d]: the IC50 in assay [1] (read-out: IC50 BuChE) was 57 µM and 57.2 µM; in assay [2], 59.3 ± 1.8 µM; in the assay on HepG2 cells it was more than 100 µM. For the same compound, the “Selectivity BuChE/AChE” value in assay [2] came out at 1.0.

As for `NNC(=O)c1ccc(C(F)(F)F)cc1` [compound 1, 4-(Trifluoromethyl)benzohydrazide], the IC50 with HepG2 cells is more than 100 µM.
